Assay [1] has as its target Casein kinase I isoform alpha (Homo sapiens, UniProt P48729). The class given is functional.
Assay [2] concerns the target Protein kinase C theta type (Homo sapiens, UniProt Q04759). The assay can be described thus: Navigating the Kinome. Panel member name: PRKCQ. The class given is functional.
Assay [3] deals with BDNF/NT-3 growth factors receptor (Homo sapiens, UniProt Q16620). It counts as functional.
Assay [4] concerns the target Rho-associated protein kinase 1 (Homo sapiens, UniProt Q13464). It counts as functional.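 Note: measured within a broad kinome-wide panel profiling many kinases.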
Assay [5] concerns the target Dual specificity protein kinase CLK2 (Homo sapiens, UniProt P49760). It counts as functional.
The target of assay [6] is Proto-oncogene tyrosine-protein kinase receptor Ret (Homo sapiens, UniProt P07949). The class given is functional.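 Note: measured within a kinome-wide profiling panel, RET as the panel member.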
Assay [7] addresses Macrophage-stimulating protein receptor (Homo sapiens, UniProt Q04912). The assay can be described thus: Navigating the Kinome. Panel member name: MST1R. It counts as functional.
Assay [8] concerns the target Mitogen-activated protein kinase kinase kinase kinase 2 (Homo sapiens, UniProt Q12851). The class given is functional.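 Note: measured as one member of a kinome-wide kinase panel, with MAP4K2 as the panel entry.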
Assay [9] deals with Tyrosine-protein kinase JAK2 (Homo sapiens, UniProt O60674). The class given is functional.
The target of assay [10] is Inhibitor of nuclear factor kappa-B kinase subunit epsilon (Homo sapiens, UniProt Q14164). Nature of the assay: Navigating the Kinome. Panel member name: IKBKE. It counts as functional.
Assay [11] concerns the target Leucine-rich repeat serine/threonine-protein kinase 2 (Homo sapiens, UniProt Q5S007). The class given is functional.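 Note: value from a broad kinome-wide panel profiling study in which LRRK2 was one of the kinases tested.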
The target in assay [12] is Cyclin-dependent kinase 9 (Homo sapiens, UniProt P50750). The class given is functional.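 Note: value from the CDK9 entry of a kinome-spanning kinase panel.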
Chain of Cyclin-dependent kinase 9 (P50750 whole entry): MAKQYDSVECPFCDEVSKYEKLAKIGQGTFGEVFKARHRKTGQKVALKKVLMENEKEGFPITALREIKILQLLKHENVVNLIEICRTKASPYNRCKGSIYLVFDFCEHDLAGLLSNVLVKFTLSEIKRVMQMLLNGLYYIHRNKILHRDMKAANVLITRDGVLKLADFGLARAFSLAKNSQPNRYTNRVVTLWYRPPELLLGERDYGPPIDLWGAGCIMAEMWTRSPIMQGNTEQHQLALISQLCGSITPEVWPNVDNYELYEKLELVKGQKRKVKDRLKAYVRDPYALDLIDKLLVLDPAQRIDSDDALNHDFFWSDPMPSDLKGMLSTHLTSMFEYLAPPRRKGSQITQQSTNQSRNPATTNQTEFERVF
Assay [13] has as its target Vascular endothelial growth factor receptor 1 (Homo sapiens, UniProt P17948). It counts as functional.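 Note: measured within a kinome-wide profiling panel, FLT1 as the panel member.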
Assay [14] addresses Death-associated protein kinase 3 (Homo sapiens, UniProt O43293). The class given is functional.
The target in assay [15] is Cyclin-dependent kinase 7 (Homo sapiens, UniProt P50613). The class given is functional.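 Note: value comes from a kinome-wide kinase profiling panel in which CDK7 is one member.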
Chain of Cyclin-dependent kinase 7 (P50613 whole entry): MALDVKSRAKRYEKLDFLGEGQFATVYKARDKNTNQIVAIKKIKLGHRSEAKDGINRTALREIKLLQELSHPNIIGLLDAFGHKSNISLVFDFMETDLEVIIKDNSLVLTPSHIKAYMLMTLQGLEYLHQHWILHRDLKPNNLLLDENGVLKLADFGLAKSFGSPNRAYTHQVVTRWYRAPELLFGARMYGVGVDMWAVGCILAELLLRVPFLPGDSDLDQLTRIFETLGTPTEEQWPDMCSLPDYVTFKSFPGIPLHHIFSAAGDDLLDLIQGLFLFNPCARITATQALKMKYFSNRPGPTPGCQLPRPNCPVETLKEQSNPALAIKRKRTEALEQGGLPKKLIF
Assay [16] concerns the target Receptor-type tyrosine-protein kinase FLT3 (Homo sapiens, UniProt P36888). The class given is functional.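 Note: FLT3 was tested as one member of a kinome-wide kinase panel.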
For assay [17], the target named is High affinity nerve growth factor receptor (Homo sapiens, UniProt P04629). The class given is functional.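 Note: NTRK1 tested as one member of a kinome-wide profiling panel.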
Assay [18] has as its target Leukocyte tyrosine kinase receptor (Homo sapiens, UniProt P29376). Nature of the assay: Navigating the Kinome. Panel member name: LTK. The class given is functional.
Assay [19] deals with Tyrosine-protein kinase receptor TYRO3 (Homo sapiens, UniProt Q06418). The class given is functional.
Assay [20] addresses Dual specificity mitogen-activated protein kinase kinase 1 (Homo sapiens, UniProt Q02750). Nature of the assay: Navigating the Kinome. Panel member name: MAP2K1. The class given is functional.
Assay [21] addresses Serine/threonine-protein kinase TAO1 (Homo sapiens, UniProt Q7L7X3). The class given is functional.
Assay [22] has as its target Serine/threonine-protein kinase PAK 4 (Homo sapiens, UniProt O96013). It counts as functional.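 Note: value obtained within a kinome profiling panel in which PAK4 was one of the panel members.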
Assay [23] addresses Macrophage colony-stimulating factor 1 receptor (Homo sapiens, UniProt P07333). It counts as functional.
Assay [24] has as its target Serine/threonine-protein kinase D3 (Homo sapiens, UniProt O94806). The class given is functional.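 Note: determined within a kinase panel screen, with PRKCN as the panel member.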
Assay [25] concerns the target T1, Sentrin-specific protease 8 (Homo sapiens, UniProt Q96LD8).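 Note: luminescence read-out of SENP8 inhibition, dose-response confirmation following an ultra-high-throughput screen.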
T1 sequence (Q96LD8 whole entry): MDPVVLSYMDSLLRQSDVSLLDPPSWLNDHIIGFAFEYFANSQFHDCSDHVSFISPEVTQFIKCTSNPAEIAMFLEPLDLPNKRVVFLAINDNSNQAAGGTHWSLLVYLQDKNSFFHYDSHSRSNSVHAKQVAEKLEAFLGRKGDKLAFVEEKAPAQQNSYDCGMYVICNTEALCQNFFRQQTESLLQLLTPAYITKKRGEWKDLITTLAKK
The class given is functional.

The target in assay [26] is T2, Sentrin-specific protease 6 (Homo sapiens, UniProt Q9GZR1).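 Note: Luminescence-based dose-response confirmatory assay of SENP6 inhibition, following up an ultra-high-throughput screen.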
T2 sequence (Q9GZR1 whole entry): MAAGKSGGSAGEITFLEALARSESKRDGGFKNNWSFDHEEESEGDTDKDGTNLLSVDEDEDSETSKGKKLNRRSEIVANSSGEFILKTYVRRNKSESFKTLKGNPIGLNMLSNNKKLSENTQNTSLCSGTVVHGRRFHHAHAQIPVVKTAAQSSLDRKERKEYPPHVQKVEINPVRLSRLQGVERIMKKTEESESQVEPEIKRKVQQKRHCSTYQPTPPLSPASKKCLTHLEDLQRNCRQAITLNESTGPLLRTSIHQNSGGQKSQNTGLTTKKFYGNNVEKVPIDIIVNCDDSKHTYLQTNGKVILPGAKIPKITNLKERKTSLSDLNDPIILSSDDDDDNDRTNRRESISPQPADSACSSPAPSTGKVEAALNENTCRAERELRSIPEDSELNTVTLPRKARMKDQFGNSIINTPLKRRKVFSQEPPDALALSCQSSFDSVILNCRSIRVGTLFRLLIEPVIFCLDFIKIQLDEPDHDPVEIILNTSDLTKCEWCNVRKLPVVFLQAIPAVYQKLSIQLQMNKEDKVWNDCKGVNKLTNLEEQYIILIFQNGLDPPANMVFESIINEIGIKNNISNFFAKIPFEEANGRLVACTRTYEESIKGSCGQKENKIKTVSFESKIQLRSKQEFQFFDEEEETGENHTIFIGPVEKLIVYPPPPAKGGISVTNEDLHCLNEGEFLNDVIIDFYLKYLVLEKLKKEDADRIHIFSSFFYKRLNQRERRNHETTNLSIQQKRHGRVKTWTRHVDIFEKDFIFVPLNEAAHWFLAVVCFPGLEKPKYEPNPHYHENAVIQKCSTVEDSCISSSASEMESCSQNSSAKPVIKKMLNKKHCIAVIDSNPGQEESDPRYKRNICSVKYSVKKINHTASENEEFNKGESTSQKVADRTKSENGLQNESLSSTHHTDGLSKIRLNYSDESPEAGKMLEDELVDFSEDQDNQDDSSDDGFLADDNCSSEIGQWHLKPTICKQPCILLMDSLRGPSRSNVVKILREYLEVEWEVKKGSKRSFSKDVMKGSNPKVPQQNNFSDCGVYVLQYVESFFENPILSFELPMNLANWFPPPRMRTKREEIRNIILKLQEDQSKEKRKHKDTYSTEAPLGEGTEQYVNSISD
It counts as functional.

The subject of a further assay is Streptococcus. Nature of the assay: GAS UMAA2166 growth inhibition – luminescence, BacTiterGlo, counter-screen for streptokinase expression inhibitor project, dose response (AID 1915).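 Note: potency for reduction of bacterial viability or growth.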 The class given is functional, organism-based.
Assay [27] relates to Streptococcus sp. 'group A'. Nature of the assay: Streptococcus pyogenes SK(-)GAS viability under kanamycin – luminescence, BacTiterGlo, confirmation, counter-screen for streptokinase expression inhibitor project, dose response (AID 1900). The class given is functional, organism-based.

Structures are written as SMILES. Active and inactive are the calls of the source.

Chain of Rho-associated protein kinase 1 (Q13464 whole entry): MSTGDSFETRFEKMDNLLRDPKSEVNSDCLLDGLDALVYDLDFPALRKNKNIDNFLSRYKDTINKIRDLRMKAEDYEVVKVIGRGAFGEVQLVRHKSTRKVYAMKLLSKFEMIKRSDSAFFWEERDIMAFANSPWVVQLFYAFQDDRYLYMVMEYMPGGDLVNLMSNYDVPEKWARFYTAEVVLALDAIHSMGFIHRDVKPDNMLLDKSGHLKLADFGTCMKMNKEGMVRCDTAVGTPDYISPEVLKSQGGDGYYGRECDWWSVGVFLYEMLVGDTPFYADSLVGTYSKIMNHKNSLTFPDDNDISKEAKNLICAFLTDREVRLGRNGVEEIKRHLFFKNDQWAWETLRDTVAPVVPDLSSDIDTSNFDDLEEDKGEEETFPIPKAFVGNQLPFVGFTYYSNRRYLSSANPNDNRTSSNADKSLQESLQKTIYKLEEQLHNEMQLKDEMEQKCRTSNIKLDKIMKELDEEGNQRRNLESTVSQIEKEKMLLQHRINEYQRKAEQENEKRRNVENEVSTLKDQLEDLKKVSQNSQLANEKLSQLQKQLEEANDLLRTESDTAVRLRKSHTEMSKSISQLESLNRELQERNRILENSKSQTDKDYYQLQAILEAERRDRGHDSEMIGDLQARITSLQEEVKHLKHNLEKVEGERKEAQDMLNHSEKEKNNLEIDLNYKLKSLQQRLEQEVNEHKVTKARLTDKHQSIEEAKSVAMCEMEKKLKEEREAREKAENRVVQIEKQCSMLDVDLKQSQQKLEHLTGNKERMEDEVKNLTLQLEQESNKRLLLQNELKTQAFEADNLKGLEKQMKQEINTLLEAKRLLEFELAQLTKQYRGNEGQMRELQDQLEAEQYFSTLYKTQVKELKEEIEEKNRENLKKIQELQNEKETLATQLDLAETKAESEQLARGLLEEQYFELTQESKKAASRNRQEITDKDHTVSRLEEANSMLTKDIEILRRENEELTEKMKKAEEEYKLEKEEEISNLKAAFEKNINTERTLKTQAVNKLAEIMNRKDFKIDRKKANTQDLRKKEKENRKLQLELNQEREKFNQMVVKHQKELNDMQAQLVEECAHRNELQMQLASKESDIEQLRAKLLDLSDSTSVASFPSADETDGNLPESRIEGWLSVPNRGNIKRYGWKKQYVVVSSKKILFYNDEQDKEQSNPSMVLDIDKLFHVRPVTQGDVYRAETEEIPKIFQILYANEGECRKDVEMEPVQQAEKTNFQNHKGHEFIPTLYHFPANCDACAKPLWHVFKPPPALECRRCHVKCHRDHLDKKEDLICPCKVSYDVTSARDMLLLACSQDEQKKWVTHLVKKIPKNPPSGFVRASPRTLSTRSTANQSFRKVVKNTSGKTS
Chain of Receptor-type tyrosine-protein kinase FLT3 (P36888 whole entry): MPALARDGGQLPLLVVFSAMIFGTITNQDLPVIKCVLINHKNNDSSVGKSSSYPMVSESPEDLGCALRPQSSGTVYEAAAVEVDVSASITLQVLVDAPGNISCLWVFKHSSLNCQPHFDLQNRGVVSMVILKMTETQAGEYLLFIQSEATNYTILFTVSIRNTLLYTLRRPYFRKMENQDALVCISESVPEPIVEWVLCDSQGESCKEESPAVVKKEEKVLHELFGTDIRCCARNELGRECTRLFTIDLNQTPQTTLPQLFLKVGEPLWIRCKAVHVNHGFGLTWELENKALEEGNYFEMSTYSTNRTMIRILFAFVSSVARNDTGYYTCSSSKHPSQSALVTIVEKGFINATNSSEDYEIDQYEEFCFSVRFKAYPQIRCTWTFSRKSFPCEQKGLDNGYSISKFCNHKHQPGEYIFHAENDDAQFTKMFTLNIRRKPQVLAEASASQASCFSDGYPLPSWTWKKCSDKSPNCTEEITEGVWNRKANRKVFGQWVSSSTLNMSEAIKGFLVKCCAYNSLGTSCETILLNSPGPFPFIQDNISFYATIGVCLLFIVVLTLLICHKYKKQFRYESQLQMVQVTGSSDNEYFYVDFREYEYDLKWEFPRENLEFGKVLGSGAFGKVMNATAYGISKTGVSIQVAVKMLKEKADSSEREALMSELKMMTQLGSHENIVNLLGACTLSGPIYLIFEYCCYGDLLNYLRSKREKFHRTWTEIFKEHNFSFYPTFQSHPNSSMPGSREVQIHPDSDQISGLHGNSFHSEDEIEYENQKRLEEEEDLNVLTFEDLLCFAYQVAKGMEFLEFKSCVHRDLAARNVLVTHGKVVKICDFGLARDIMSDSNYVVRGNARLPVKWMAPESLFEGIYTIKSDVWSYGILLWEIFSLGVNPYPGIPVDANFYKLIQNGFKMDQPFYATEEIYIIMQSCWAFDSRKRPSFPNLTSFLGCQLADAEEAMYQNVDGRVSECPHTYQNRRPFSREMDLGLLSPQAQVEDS
Chain of Macrophage-stimulating protein receptor (Q04912 25-304 limits assumed): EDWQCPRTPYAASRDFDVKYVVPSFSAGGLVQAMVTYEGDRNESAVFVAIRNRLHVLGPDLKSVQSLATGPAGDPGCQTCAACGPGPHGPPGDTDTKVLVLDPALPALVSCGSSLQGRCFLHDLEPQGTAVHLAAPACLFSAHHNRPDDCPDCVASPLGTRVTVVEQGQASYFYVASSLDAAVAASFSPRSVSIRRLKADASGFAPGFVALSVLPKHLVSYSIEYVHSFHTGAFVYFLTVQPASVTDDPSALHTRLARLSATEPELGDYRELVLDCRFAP
Chain of Macrophage-stimulating protein receptor (Q04912 310-1400 limits assumed): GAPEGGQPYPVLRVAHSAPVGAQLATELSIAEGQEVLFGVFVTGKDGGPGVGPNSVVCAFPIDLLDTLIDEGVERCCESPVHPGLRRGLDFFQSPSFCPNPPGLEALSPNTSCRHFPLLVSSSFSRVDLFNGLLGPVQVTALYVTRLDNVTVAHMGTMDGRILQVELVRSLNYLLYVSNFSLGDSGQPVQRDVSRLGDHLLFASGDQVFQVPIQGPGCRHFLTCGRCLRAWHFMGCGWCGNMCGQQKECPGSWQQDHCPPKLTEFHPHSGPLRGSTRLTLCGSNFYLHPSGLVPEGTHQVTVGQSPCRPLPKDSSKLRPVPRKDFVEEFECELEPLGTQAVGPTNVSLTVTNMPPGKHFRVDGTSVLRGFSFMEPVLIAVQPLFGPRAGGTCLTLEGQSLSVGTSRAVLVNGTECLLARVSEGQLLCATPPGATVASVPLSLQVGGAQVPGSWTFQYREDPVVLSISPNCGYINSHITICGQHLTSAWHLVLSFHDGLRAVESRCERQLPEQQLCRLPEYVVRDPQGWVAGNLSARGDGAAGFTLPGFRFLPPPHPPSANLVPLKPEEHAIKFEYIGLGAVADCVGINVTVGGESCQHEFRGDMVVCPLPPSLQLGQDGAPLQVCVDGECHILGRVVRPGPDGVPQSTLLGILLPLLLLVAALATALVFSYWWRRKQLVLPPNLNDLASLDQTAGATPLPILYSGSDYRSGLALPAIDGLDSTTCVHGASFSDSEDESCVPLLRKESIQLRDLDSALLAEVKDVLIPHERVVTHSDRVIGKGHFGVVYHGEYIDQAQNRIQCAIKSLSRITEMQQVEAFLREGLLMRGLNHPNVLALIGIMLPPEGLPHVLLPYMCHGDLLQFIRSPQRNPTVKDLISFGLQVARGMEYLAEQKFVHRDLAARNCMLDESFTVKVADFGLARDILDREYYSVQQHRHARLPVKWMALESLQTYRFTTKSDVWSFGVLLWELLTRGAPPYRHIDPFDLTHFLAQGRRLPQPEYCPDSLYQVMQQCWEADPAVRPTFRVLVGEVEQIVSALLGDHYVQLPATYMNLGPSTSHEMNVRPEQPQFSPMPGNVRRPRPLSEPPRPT
Chain of Death-associated protein kinase 3 (O43293 whole entry): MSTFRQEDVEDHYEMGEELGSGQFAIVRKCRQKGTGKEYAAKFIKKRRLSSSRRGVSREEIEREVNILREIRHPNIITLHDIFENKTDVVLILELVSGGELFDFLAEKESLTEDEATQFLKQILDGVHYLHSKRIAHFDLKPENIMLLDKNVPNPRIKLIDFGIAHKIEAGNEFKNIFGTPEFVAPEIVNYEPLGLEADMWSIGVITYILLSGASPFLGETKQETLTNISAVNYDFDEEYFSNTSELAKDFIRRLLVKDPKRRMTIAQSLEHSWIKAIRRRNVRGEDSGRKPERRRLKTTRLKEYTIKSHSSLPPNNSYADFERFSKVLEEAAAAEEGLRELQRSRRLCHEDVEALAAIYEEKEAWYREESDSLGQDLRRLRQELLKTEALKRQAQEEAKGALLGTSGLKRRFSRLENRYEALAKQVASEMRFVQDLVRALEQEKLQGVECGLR

Turning to `Nc1c(-c2ccc(NC(=O)Nc3cccc(C(F)(F)F)c3)cc2)cnc2c(-c3ccc4c(c3)OCO4)cnn12`, the Ki in assay [1] is > 3.98 µM (inactive); in [2], > 2.51 µM (inactive); in assay [3] it was 0.0126 µM (active); in assay [4], > 3.98 µM (inactive); in assay [5], > 3.98 µM (inactive); in assay [6], 0.00398 µM (active). In addition, the Ki was > 3.98 µM (inactive) in assay [7]; > 2.51 µM (inactive) in [8]; > 2.51 µM (inactive) in assay [9]; > 3.16 µM (inactive) in assay [10]; > 2.51 µM (inactive) in assay [11]; > 1.58 µM (inactive) in assay [12]. The Ki in assay [13] is 0.251 µM (active); in assay [14] it was > 5.01 µM (inactive); in assay [15], > 3.98 µM (inactive); in assay [16] it was 0.0501 µM (active); in assay [17], 0.1 µM (active); in assay [18], > 2.51 µM (inactive). For the same molecule, the Ki in assay [19] was 1.26 µM (active); in assay [20], > 3.16 µM (inactive); in assay [21] it was > 6.31 µM (inactive); in assay [22] it was > 5.01 µM (inactive); in [23], 0.0631 µM (active); in [24], > 3.98 µM (inactive).
Regarding `Nc1nnc2c(n1)CCCC2`, the results for the concentration for half-maximal inhibition (IC50) in assay [25] and in assay [26] were 10.8 µM (active) and 7.37 µM (active), respectively.
Regarding `CCN1C(=Cc2sc3ccccc3[n+]2C)C=Cc2cccc(C)c21`, the EC50 in the assay on Streptococcus was 8.99 µM (active); in assay [27], 4.08 µM (active).
Take `O=C(Nc1cc(-c2c[nH]c3ncccc23)cc(Cl)n1)c1ccccc1`: the Ki in assay [1] was > 2.51 µM (inactive); in assay [2] it was > 2.51 µM (inactive); in assay [3], > 3.98 µM (inactive); in assay [4] it was > 0.316 µM (inactive); in assay [5], > 3.16 µM (inactive); in [6], > 3.16 µM (inactive). Moreover, the Ki in assay [7] was > 3.98 µM (inactive); in assay [8], > 2.51 µM (inactive); in [9], > 2.51 µM (inactive); in assay [10], > 3.16 µM (inactive); in [11] it was > 2.51 µM (inactive); in assay [12], > 1.58 µM (inactive). The Ki in assay [13] is > 3.98 µM (inactive); in assay [14], > 3.98 µM (inactive); in assay [15] it was > 3.98 µM (inactive); in assay [16], > 2.51 µM (inactive); in [17], > 3.16 µM (inactive); in [18] it was > 2.51 µM (inactive). For the same molecule, the Ki is > 3.16 µM (inactive) in assay [19]; > 3.16 µM (inactive) in assay [20]; > 6.31 µM (inactive) in [21]; > 5.01 µM (inactive) in [22]; > 2.51 µM (inactive) in assay [23]; > 3.98 µM (inactive) in assay [24].
Take `CNC[C@H](Cc1ccccc1)NC[C@@H](Cc1cccc2ccccc12)NCCc1ccc(C)cc1`: the EC50 with Streptococcus is 7.51 µM (active); in assay [27], 4.79 µM (active).
On to `O=C(N/N=C/c1c(O)ccc2ccccc12)c1[nH]ncc1Br`, for which the IC50 in assay [25] and in assay [26] was > 100 µM (inactive) each time.

The values above are taken from ChEMBL document CHEMBL1201862, “PubChem BioAssay data set” (2004).
